Assay results reported in patent US7322369B2, “Methods of detaching microorganisms from, or of inhibiting microbial attachment to, animal or poultry carcasses or seafood or parts thereof” (priority 2000, dated 2008).
Where a name gives a salt, the structure may show the parent alone.

Columns and labels:
[1] = tested on: bacteria bound to collagen; assay: Biosensor detachment of bacteria bound to collagen; type: binding; details: 0.5M arginine, phosphoric acid 0.1M, HCl 0.1M, citric acid 0.5M
From the text: Use of Guanidine, creatine and arginine: Guanidine is a strong cytotoxic compound and can not be used in large quantities in food plants or slaughter operations. […] However, its use may be limited in the laboratory for analysis of food tissues. Therefore, a substitute for guanidine for detachment of pathogens from food carcasses was investigated. Guanidine is structurally related to creatine and arginine with a guanidyl moeity in their molecules. […] It has been shown that creatine hydrolyzes upon dissolution in water or buffer converting it to creatinine (methylglycocyamidine), a cyclic product and an end product of creatine metabolism. […] Arginine is an essential amino acid for children but not for adults. It is non-essential for adults because it can be derived from proteins in the diet. It is also inexpensive and can be obtained in bulk. Phosphoric acid (0.1M), HCl (0.1M) and citric acid (0.5M) had no effect in the detachment studies.

Salmonella = assay: Detachment of Salmonella in sandwich immunoassay (biosensor); type: binding; details: sequential .75M Arginine, 6M Guanidine, 0.25 NaCl + 0.05% Tween 80
E. coli 0157 = assay: Detachment of E. coli O157 in sandwich immunoassay (biosensor); type: binding; details: sequential .75M Arginine, then 0.25 NaCl + 0.05%Tween 80
E. coli O157:H7 surface = assay: Biosensor inhibition of collagen binding to E. coli O157:H7 surface; details: 12 trials
From the text: (§1) Biosensor Studies: A novel approach to study bacterial attachment to animal carcass was designed. The studies led to a development of a biosensor method to study binding of extracellular matrix components to the surface of immobilized bacteria. This novel approach utilized immobilized whole E. coli cells. This approach allowed the study of the binding of the lipopolysaccharides and other bacterial surface epitopes without altering their chemical structure. Conditions for immobilization and determination of the bacterial cell surface binding properties were initially assessed with anti-E. coli 0157:H7 antibody (Medina et al. (1997), Real-time analysis of antibody binding interactions with immobilized E. coli O157:H7, Biotechnology Techniques, Vol. 11 (3): 173-176). The bacterial surface was bound with an antibody produced against a heat-killed bacteria. […] The binding interactions of polysulfated polysaccharides such as heparan sulfate and iota, lambda and kappa carrageenans were determined with the extracellular matrix proteins (ECM) and the immobilized E. coli O157:H7 cells. […]

[2] = tested on: Salmonella typhimurium Sensor Surface; assay: Biosensor inhibition of collagen binding to Salmonella typhimurium sensor surface; details: 12 trials
E. coli and Salmonella = assay: Biosensor kinetics of bacteria-collagen binding (E. coli and Salmonella pooled)
From the text: as §1

bacteria = assay: Bactericidal effect; type: cell-based; details: pH 2.5
From the text: The present invention also includes a method of quantifying microorganisms (e.g., bacteria) on carcasses or parts thereof. To enhance detachment of microorganisms (e.g., bacteria) for sampling: Treatment of animal and poultry carcass or seafood with polysulfated polysaccharides or carboxymethyl cellulose followed by guanidine or arginine or phosphate buffer and NaCl/non-ionic surfactant may enhance detachment of microorganisms for sampling and analytical purposes. […] At pH 4.8, live bacteria may be recovered with guanidine-HCl. At pH 2.5, guanidine-HCl is bactericidal. Therefore, its use may be limited in the laboratory (FIG. 4). For “in situ” sampling in the slaughter plants, arginine, or phosphate buffer and TWEEN-80/NaCl may be used in place of guanidine (FIG. 5).
Collagen is the major component (40%) of the connective tissues. Results from the scanning electron microscopy studies illustrated the abundance of collagen strands in the fascia and connective tissues (Medina et al. (1999), Scanning Electron Microscopy Studies on Attachment of Escherichia Coli O157:H7 to Bovine Tissues, Presented at 1999 IFT Annual Meeting, Chicago, Ill., July 24-28; Poster at Gordon Research Conference on Molecular Mechanisms of Microbial Adhesions (Aug. 1-6, 1999) and at the 18th Annual Meeting of the Philippine-American Academy of Science and Engineering, Jekyll Is., Ga., Aug. 13-15, 1999). […]

Molecule: O=P(O)(O)O [Phosphoric acid]
- detachment of bacteria bound to collagen [1]: no effect

Molecule: CN(CC(=O)O)C(=N)N [creatine]
- detachment of bacteria bound to collagen [1]: ineffective

Molecule: N=C(N)NCCC[C@H](N)C(=O)O [Arginine, arginine]
- detachment of bacteria bound to collagen [1]: equally good or better than 1 M guanidine-HCl
- Surface RU removed from the sensor surface (Salmonella; CFU 0): 75 RU
- Surface RU removed from the sensor surface (Salmonella; CFU 10E + 4): 20 RU
- Surface RU removed from the sensor surface (Salmonella; CFU 10E + 5): 32 RU
- Surface RU removed from the sensor surface (Salmonella; CFU 10E + 6): 48 RU
- Surface RU removed from the sensor surface (Salmonella; CFU 10E + 7): 96 RU
- Surface RU removed from the sensor surface (E. coli 0157; CFU 0): 99 RU
- Surface RU removed from the sensor surface (E. coli 0157; CFU 10E + 3): 237 RU
- Surface RU removed from the sensor surface (E. coli 0157; CFU 10E + 4): 249 RU
- Surface RU removed from the sensor surface (E. coli 0157; CFU 10E + 5): 275 RU
- Surface RU removed from the sensor surface (E. coli 0157; CFU 10E + 6): 299 RU
- Surface RU removed from the sensor surface (E. coli 0157; CFU 10E + 7): 405 RU

Molecule: collagen
- affinity constant of collagen to E. coli binding, mean (E. coli O157:H7 surface): 3e+08 M⁻¹
- affinity constant of collagen to Salmonella binding, mean [2]: 2.75e+07 M⁻¹
- dissociation constants of bacteria and collagen binding (E. coli and Salmonella): 10^−8 to 10^−9 KDMole
- affinity constants of collagen to E. coli and Salmonella binding, range (E. coli and Salmonella; 12 trials (each)): 10^7 to 10^8 M^−1

Molecule: Cl [HCl]
- detachment of bacteria bound to collagen [1]: no effect

Molecule: N=C(N)N [Guanidine, guanidine]
- detachment of bacteria bound to collagen [1]: very effective detachment agent
- bactericidal effect (bacteria): bactericidal
- Surface RU removed from the sensor surface (Salmonella; CFU 0): −137 RU
- Surface RU removed from the sensor surface (Salmonella; CFU 10E + 4): −100 RU
- Surface RU removed from the sensor surface (Salmonella; CFU 10E + 5): −54 RU
- Surface RU removed from the sensor surface (Salmonella; CFU 10E + 6): −22 RU
- Surface RU removed from the sensor surface (Salmonella; CFU 10E + 7): −32 RU

Molecule: O=C(O)CC(O)(CC(=O)O)C(=O)O [citric acid]
- detachment of bacteria bound to collagen [1]: no effect
